pIC50: −log10 of the molar value. Blank lines part the entries; values can stand above or below the molecule they belong to.
What was measured:
Sirt5 [1] = target: T1, Sirt5 (Homo sapiens, UniProt Q9NXA8); assay: sirtuin inhibition IC50, Sirt5-catalyzed desuccinylation; assay type: biochemical
T1 sequence (Q9NXA8 37-310): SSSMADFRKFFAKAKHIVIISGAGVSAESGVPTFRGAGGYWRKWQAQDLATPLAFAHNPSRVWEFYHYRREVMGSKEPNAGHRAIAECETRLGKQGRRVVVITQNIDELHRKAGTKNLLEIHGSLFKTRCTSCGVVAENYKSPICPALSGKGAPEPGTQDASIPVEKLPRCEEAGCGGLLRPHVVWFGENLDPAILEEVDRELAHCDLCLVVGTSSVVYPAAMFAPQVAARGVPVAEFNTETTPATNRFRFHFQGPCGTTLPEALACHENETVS

MCF-7 = assay: inhibition of MCF-7 cancer cells, crystal violet staining after 10 days; assay type: cell-based, human; conditions: 25, 50, 75, 100 μM
Procedure: 15,000 cells were seeded in each well and treated with 25, 50, 75, and 100 μM YC6-18 and YC6-18e. Media with the inhibitor/DMSO was changed every three days. Cells were stained with crystal violet after growing for 10 days. The results are shown in FIG. 5A (for YC-6-18) and FIG. 5B (for YC-6-18e).

HeLa cell lines = assay: protein succinylation Western blot in HeLa cells; assay type: cell-based; conditions: 100 μM, 24 and 48 hours
Procedure: FIGS. 3A and 3B show the results of treatment of HeLa cell lines with 100 μM YC6-18e at time points of 24 and 48 hours, and FIG. 3C is the structure of YC6-18e. […] The results reveal that treatment with Compound YC6-18e can increase protein lysine succinylation. It was observed that the loading is lower for 48 hours but the succinylation intensity is slightly higher.

Sirt2 = target: T2, Sirt2 (Homo sapiens, UniProt Q8IXJ6); assay: sirtuin inhibition IC50, Sirt2; assay type: biochemical
T2 sequence (Q8IXJ6 1-389): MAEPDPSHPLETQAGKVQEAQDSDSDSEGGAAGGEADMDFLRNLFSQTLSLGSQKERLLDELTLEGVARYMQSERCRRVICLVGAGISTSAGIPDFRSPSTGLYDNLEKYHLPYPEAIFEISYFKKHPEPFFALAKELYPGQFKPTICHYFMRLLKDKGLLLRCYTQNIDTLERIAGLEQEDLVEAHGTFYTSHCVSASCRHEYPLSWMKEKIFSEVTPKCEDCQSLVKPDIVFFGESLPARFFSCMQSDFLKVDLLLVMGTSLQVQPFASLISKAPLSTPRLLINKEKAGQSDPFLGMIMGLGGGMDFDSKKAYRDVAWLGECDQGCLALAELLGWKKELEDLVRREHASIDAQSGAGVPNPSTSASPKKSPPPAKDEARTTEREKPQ

Sirt3 = target: T3, Sirt3 (Homo sapiens, UniProt Q9NTG7); assay: sirtuin inhibition IC50, Sirt3; assay type: biochemical; conditions: Table 1; NI = no inhibition at 256 μM
T3 sequence (Q9NTG7 1-399): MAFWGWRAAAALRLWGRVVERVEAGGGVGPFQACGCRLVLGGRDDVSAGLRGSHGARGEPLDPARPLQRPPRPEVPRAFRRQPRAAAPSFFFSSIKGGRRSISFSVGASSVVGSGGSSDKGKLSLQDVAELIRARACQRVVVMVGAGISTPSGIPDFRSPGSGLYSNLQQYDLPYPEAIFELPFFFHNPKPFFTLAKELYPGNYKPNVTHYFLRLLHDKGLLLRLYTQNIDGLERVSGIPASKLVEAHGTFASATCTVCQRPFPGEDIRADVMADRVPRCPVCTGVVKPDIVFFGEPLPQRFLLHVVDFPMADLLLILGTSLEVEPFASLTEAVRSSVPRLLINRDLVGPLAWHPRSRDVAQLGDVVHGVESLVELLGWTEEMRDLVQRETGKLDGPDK

Sirt1 = target: T4, Sirt1 (Homo sapiens, UniProt Q96EB6); assay: sirtuin inhibition IC50, Sirt1; assay type: biochemical; conditions: Table 1; NI = no inhibition at 256 μM
T4 sequence (Q96EB6 1-747): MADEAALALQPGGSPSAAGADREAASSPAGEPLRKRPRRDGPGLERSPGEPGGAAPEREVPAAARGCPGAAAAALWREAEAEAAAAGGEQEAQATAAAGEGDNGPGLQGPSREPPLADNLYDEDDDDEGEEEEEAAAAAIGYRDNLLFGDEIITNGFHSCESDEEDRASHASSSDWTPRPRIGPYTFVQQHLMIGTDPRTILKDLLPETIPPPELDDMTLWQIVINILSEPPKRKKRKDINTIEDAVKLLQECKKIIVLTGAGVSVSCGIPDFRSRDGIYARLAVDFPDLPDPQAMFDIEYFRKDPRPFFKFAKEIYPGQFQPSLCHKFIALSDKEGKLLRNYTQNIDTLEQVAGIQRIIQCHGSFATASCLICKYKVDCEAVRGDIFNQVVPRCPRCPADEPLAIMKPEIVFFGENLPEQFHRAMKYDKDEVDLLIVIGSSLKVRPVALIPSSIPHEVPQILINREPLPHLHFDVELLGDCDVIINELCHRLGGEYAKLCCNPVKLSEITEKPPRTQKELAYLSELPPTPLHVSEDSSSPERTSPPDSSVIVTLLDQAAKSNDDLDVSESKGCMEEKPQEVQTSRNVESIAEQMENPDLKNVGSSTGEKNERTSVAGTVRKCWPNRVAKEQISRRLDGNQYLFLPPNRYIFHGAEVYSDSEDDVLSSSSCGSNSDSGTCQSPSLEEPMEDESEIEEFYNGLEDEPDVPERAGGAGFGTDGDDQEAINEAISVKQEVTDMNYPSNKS

MDA-MB-231 = assay: foci formation, MDA-MB-231; assay type: cell-based, human; conditions: tested at 10, 25, 50, 100 μM
Procedure: (§1) Each cancer cell line was assayed under the following six conditions: (1) untreated, (2) DMSO, (3) 15-2e at 10 μM, (4) 15-2e at 25 μM, (5) 15-2e at 50 μM, and (6) 15-2e at 100 μM.

MCF-7 cells = assay: foci formation, MCF-7; assay type: cell-based, human; conditions: tested at 10, 25, 50, 100 μM
Procedure: as §1

MDA-MB-468 = assay: foci formation, MDA-MB-468; assay type: cell-based, human; conditions: tested at 10, 25, 50, 100 μM
Procedure: as §1

Sirt5 [2] = target: T1, Sirt5; assay: LC-MS analysis of reaction mixture with Sirt5 and NAD (mechanism-based inhibition); assay type: biochemical; conditions: LC / MS detection
Procedure: To further confirm that the thiourea compound 5 is a mechanism-based inhibitor, the reaction mixture was analyzed by liquid chromatography-mass spectrometry (LC-MS). An ion with m/z of 1028.17 (corresponding to Compound 7a or protonated Compound 7b or 7c) was detected only when Compound 5 was incubated with both Sirt5 and NAD for 15 minutes, but not in negative controls without Sirt5 or NAD. In addition to Compound 7a or protonated Compound 7b or 7c, two new ions with m/z of 356.33 (corresponding to Compound 1) and 471.42 (corresponding to Compound 10) were also observed when Compound 5 was incubated with both Sirt5 and NAD, but not in negative controls without Sirt5 or NAD. Both Compounds 1 and 10 can be derived from the regular Sirt5-catalyzed deacylation reaction of Compound 7a (herein denoted as pathway A, as discussed in A. A. Sauve, et al., Annu. Rev. Biochem., 75, 435-465, 2006) or by an alternative hydrolysis pathway of 7a that is different from the regular sirtuin-catalyzed deacylation pathway (herein denoted as pathway B). […]
The foregoing results are likely responsible for Compound 3b being a less capable inhibitor of Sirt5 compared to Compound 5. […] The decomposition of the covalent intermediate occurs mainly through the Sirt5-catalyzed deacylation pathway A as the major product detected is Compound 1 with an m/z of 356.33.
The intermediate (7a/7b/7c) is readily detected by LC. […]

[3] = Table 1, NI = no inhibition at 256 μM

SMILES: CCOC(=O)CCNC(=S)NCCCCC(NC(=O)OCc1ccccc1)C(=O)NC1CCSc2ccccc21 (stereo not shown) [YC6-18e]
pIC50 (Sirt5 [1]; Table 2, NI = no inhibition): < 3.78 | killing of MCF-7 cells (MCF-7): very effective in killing MCF-7 at 25 μM concentration | succinylation level on proteins (HeLa cell lines): increased the succinylation level on proteins at 24 and 48 hours | pIC50 (Sirt2; Table 2, NI = no inhibition): 5.41

SMILES: CC(=O)NC(CCCCNC(=S)NCCC(=O)O)C(=O)Nc1cccc(O)c1 (stereo not shown) [YC6-17]
pIC50 (Sirt5 [1]; Table 2, NI = no inhibition): 4.87

SMILES: NS(=O)(=O)c1cc(C(=O)NC(CCCCNC(=S)NCCC(=O)O)C(=O)Nc2cccc(O)c2)ccc1Cl (stereo not shown) [YC6-14]
pIC50 (Sirt5 [1]; Table 2, NI = no inhibition): 5.52

SMILES: CC(C)(C)OC(=O)NC(CCCCNC(=S)NCCC(=O)O)C(=O)Nc1cccc(O)c1 (stereo not shown) [YC6-09]
pIC50 (Sirt5 [1]; Table 2, NI = no inhibition): 5.36

SMILES: CCOC(=O)CCNC(=S)NCCCCC(NC(=O)OCc1ccccc1)C(=O)Nc1cccc(O)c1 (stereo not shown) [Compound I5-2e]
pIC50 (Sirt5 [1]; Table 2, NI = no inhibition): < 3.70 | inhibition at 200 µM (Sirt5 [1]; Table 2, at 200 μM (footnote 3), read-out: inhibition of SIRT5 (in brackets under IC50)): 30% | concentration from which foci formation is inhibited (MDA-MB-231): about 25 μM | pIC50 (Sirt2; Table 2, NI = no inhibition): 5.15 | concentration from which foci formation is inhibited (MCF-7 cells): about 25 μM | concentration from which foci formation is inhibited (MDA-MB-468): about 25 μM

SMILES: CCCCCCCNC(=S)NCCCCC(NC(=O)OCc1ccccc1)C(=O)Nc1ccccc1 (stereo not shown) [Compound 6]
pIC50 (Sirt5 [1]; [3]): < 3.59 | pIC50 (Sirt2; [3]): 6.70 | pIC50 (Sirt1): 4.19

The next lines start with results.

pIC50 (Sirt5 [1]; Table 2, NI = no inhibition): 5.48
SMILES: O=C(O)CCNC(=S)NCCCCC(NC(=O)OCc1ccccc1)C(=O)Nc1ccc(O)cc1 (stereo not shown) [YC6-04]

pIC50 (Sirt5 [1]; Table 2, NI = no inhibition): 6.35
SMILES: O=C(O)CCNC(=S)NCCCCC(NC(=O)OCc1ccccc1)C(=O)NC1CCSc2ccccc21 (stereo not shown) [YC6-18]
killing of MCF-7 cells (MCF-7): almost no effect

pIC50 (Sirt5 [1]; [3]): < 3.30 | inhibition at 500 µM (Sirt5 [1]; at 500 μM): 20% | pIC50 (Sirt3): < 3.59 | pIC50 (Sirt2; [3]): < 3.59 | pIC50 (Sirt1): < 3.59
SMILES: O=C(O)CCC(=S)NCCCCC(NC(=O)OCc1ccccc1)C(=O)Nc1ccccc1 (stereo not shown) [Compound 3a, reference compound]

pIC50 (Sirt5 [1]; Table 2, NI = no inhibition): 5.72
SMILES: O=C(O)CCNC(=S)NCCCCC(NC(=O)OCc1ccccc1)C(=O)Nc1ccccc1O (stereo not shown) [YC6-07]

pIC50 (Sirt5 [1]; Table 2, NI = no inhibition): 6.05
SMILES: O=C(O)CCNC(=S)NCCCCC(NC(=O)OCc1ccccc1)C(=O)Nc1cccc(O)c1 (stereo not shown) [Compound I5-2]

pIC50 (Sirt5 [1]; [3]): 4.37 | pIC50 (Sirt3): < 3.59 | covalent intermediate with NAD in the presence of Sirt5 (Sirt5 [2]): hardly detectable by LC | pIC50 (Sirt2; [3]): < 3.59 | pIC50 (Sirt1): < 3.59
SMILES: O=C(O)CCCC(=S)NCCCC[C@H](NC(=O)OCc1ccccc1)C(=O)Nc1ccccc1 [Compound 3b]

From patent US10556878B2, “Thiourea compounds and their use as inhibitors of Sirt2 or Sirt5” (CORNELL UNIVERSITY, priority 2013, dated 2020)
